Source: article PMC9574927 (Journal of Medicinal Chemistry, 2022)

Assays:
[1] = mouse
in vivo = conditions: male, CD-1, mouse, po, 100 mg/kg
SARS-CoV-2 M^pro = SARS-CoV-2 M^pro (Severe acute respiratory syndrome coronavirus 2, UniProt P0DTD1); format: biochemical

Structure (SMILES)	lung tissue Cmax ([1]; 25 mg/kg inhalative)	time of first appearance in plasma and urine post administration ([1]; 25 mg/kg inhalative)	BALF concentrations at 5 h post administration (in words) ([1]; 100 mg/kg peroral, DOPS LUV formulation)	time up to which found in plasma and lung tissue ([1]; single inhalative dose 25 mg/kg)	CL/F (in vivo)	activity against Mpro in words (SARS-CoV-2 M^pro)
CC(C)(C)OC(=O)Nc1cccn([C@@H](CC2CC2)C(=O)N[C@@H](C[C@@H]2CCNC2=O)C(=O)C(=O)NCc2ccccc2)c1=O [Compound 13b-K, tert-Butyl (1-((S)-1-(((S)-4-(Benzylamino)-3,4-dioxo-1-((S)-2-oxopyrrolidin-3-yl)butan-2-yl)amino)-3-cyclopropyl-1-oxopropan-2-yl)-2-oxo-1,2-dihydropyridin-3-yl)carbamate]	261,748 ± 1294.4 ng/g	≤ 15 min	in the same range as after inhalative administration of 25 mg/kg	up to 24 h	1160 mL/min/kg	
CC(C)(C)OC(=O)Nc1cccn([C@H](CC2CC2)C(=O)N[C@@H](C[C@@H]2CCNC2=O)C(=O)C(=O)NCc2ccccc2)c1=O [Compound 13b-H, tert-Butyl (1-((R)-1-(((S)-4-(Benzylamino)-3,4-dioxo-1-((S)-2-oxopyrrolidin-3-yl)butan-2-yl)amino)-3-cyclopropyl-1-oxopropan-2-yl)-2-oxo-1,2-dihydropyridin-3-yl)carbamate]						nearly inactive
